Laboratory results reported in US4986982A, “Cosmetic composition” (priority 1988, dated 1991).

Assays:
physchem = settings: 100 mm phosphate buffer
Description: (§1) (i) The chosen ester of pyroglutamic acid was dissolved in aqueous buffer of a selected pH value, to provide a 0.1% w/v solution of the ester;
(§2) (ii) Intact (unhydrolysed) ester was analysed by high performance liquid chromatography at regular time intervals.
(§3) (iii) The log of the amount of the ester remaining intact versus time was plotted to give a straight line response.
(§4) (iv) From this plot, the time required for half of the ester of pyroglutamic acid to be hydrolysed (half of the ester remaining intact), can be determined if necessary by extrapolation.
(§5) *Assay performed in 100 mM phosphate buffer at 30° C.

[1] = Delivery of pyroglutamic acid to the stratum corneum after topical application of tritiated esters to the arms of volunteers (radio-tracer technique); type: in vivo, human; settings: [3H] pyroglutamic acid applied topically instead of ester
Description: Accordingly, [^3 H] esters of pyroglutamic acid were each dissolved at 1% w/v in anhydrous ethanol or in an oil-in-water emulsion base. […] The [^3 H] pyroglutamic acid was separated from unchanged ester by chromotography on AG1X8 resin and the amount delivered to the skin expressed as nmoles per mg of stratum corneum protein.

[2] = Stability of esters of pyroglutamic acid in aqueous buffer (half-life of hydrolysis, intact ester by HPLC)
Description: as §1, §2, §3, §4, §5

Structure (SMILES) | half-life (physchem; pH 4) | half-life (physchem; pH 7) | also measured
CCCCOC(=O)[C@@H]1CCC(=O)N1 [Pyroglutamic acid n-butyl ester, pyroglutamic acid n-butyl ester] | 625 days | 3.33 days | 
CCCCCCOC(=O)[C@@H]1CCC(=O)N1 [Pyroglutamic acid n-hexyl ester, pyroglutamic acid n-hexyl ester] | 750 days | 4 days | 
O=C1CCC(C(=O)O)N1 (stereo not shown) [[^3 H] pyroglutamic acid, 2-pyrrolidone-5-carboxylic acid] |  |  | amount of tritiated free acid recovered from the stratum corneum [1]: negligible amount
CCOC(=O)C(C)OC(=O)C1CCC(=O)N1 (stereo not shown) [Ethyl-2-[pyroglutamoyloxy]-n-propionate, ethyl-2-[pyroglutamoyloxy]-n-propionate] | 70.8 days | 0.375 days | 
CCOC(=O)[C@@H]1CCC(=O)N1 [Pyroglutamic acid ethyl ester, pyroglutamic acid ethyl ester] |  |  | half-life ([2]; 100 mm phosphate buffer, pH 4): 458 days; half-life ([2]; 100 mm phosphate buffer, pH 7): 2.42 days; half-life ([2]; aqueous buffer, pH 6.5): 12 days; half-life ([2]; aqueous buffer, pH 6.8): 7 days; half-life ([2]; aqueous buffer, pH 7): 2.4 days; half-life ([2]; aqueous buffer, pH 7.4): 2 days; half-life ([2]; aqueous buffer, pH 7.8): 1 days
CCCCCCCCOC(=O)[C@@H]1CCC(=O)N1 [Pyroglutamic acid n-octyl ester, pyroglutamic acid n-octyl ester] | 750 days | 4 days | 
